# From paper PMC6345745, “Discovery of novel hit compounds with broad activity against visceral and cutaneous Leishmania species by comparative phenotypic screening” (Scientific Reports, 2019)
# Tests used:
# [1] = tested on: intracellular L. donovani amastigotes (strain Ld1S); assay: High content assay on intramacrophagic L. donovani amastigotes in primary mouse macrophages; format: cell-based, Leishmania donovani; conditions: for SI (selectivity index): EC50 (BMDM) versus EC50 (L. donovani Am); for EC50: Leishmania donovani, BMDM, 72 h, read-out: EC50 (L. donovani Am)
# Experimental: (§1) Bone marrow derived macrophages (BMDMs) at day 6 of differentiation were resuspended in complete medium supplemented with CSF-1 (25 ng/ml) and deposited in 384 well plates (culture-treated, flat-optically clear bottom, Cellcarrier plate, PerkinElmer). Five hours later purified Am were added.
# (§2) One day after macrophage infection, Leish-Box compounds dissolved in DMSO were added for 3 days at 10 or 1 μM final concentration resulting in a 1% DMSO final concentration. Each compound was tested in quadruplicates. Controls included mock (no liquid added), vehicle control (DMSO), positive control (anti-leishmanial amphotericin B, AmB), and cytotoxicity control (cycloheximide, Cyclo).
# (§3) The high content assay used to assess the anti-leishmanial activity against intramacrophagic L. donovani amastigotes corresponds to the L. amazonensis HCS protocol up to the drug incubation step. Then, BMDM cultures were fixed with 4% paraformaldehyde solution in PBS for 1 hour at room temperature, washed with PBS, blocked with 50 mM NH4Cl-PBS for 15 min, and saturated for 30 min with saponin-PBS (0.1 mg/ml) containing 5% normal goat serum. All washing steps were performed with saponin-PBS. Cells were incubated for 45 min with saponin-PBS with 0.25% gelatin and an immune serum obtained from a L. donovani infected hamster (dilution 1/1000), washed twice, and further incubated for 45 min with saponin-PBS containing 0.25% gelatin and 2 µg/ml conjugated AlexaFluor 488 goat anti hamster IgG (Jackson ImmunoReasearch). Finally, after additional washing, Hoechst 33342 (5 µg/ml) and HCS CellMask Blue stain (HCS, Invitrogen Molecular Probes, 2 µg/ml) were added for 30 min at room temperature, washed twice with PBS and stored at 4 °C until acquisition. For hit compounds EC50s were calculated using SigmaPlot software (four parameter logistic equation) following application of a range of concentrations (from 10 to 0.16 µM) performed in duplicates.
# (§4) Images of macrophage cultures were acquired using the automatic Opera QEHS confocal imaging system (Perkin Elmer Technology). For the L. donovani HCA, a 40x water objective and two lasers (488 nm for immuno-stained parasites; 405 nm for Hoechst-stained parasite and macrophage nuclei, and HCS-stained macrophage cytoplasm) were used for acquiring 285 fields for the entire well or 30 fields per well in routine HCA conditions. For L. amazonensis HCA, a 10x air objective and three lasers (561 nm for mCherry-expressing parasites; 488 nm for LysoTracker-containing PVs; 405 nm for Hoechst-stained macrophage nuclei) were used to acquire images from entire wells (15 fields).
# Images were transferred to the Columbus Conductor™ Database (Perkin Elmer Technologies) and analyzed using the integrated Image analysis building blocks. For L. donovani HCA, we developed a new script based on object segmentation subroutines detecting successively the macrophage nucleus, the macrophage cytoplasm, the parasites and their nuclei, with their associated features (number, size and object intensity). All methods used for segmentation are described in the Columbus Manuel. Analysis was simplified by only taking into account the number of macrophages and the number of amastigotes per macrophage, which was the common way to estimate the anti-leishmanial activity in screening campaigns. For the sake of clarity, both toxicity against host cells and activity against the parasites of tested compounds were normalized to DMSO-treated controls and expressed as percent of DMSO controls. The viability index is calculated by establishing a ratio of macrophage numbers between compound- and DMSO-treated cells, while the anti-leishmanial activity is represented by the number of amastigotes per macrophage. Compounds causing a 50% or higher reduction of macrophage density were considered toxic. […] For the L. amazonensis HCA, we applied the method we described previously. […]
# [2] = tested on: BMDM (bone marrow derived macrophages); assay: Host cell toxicity (macrophage number) in the L. donovani high content assay; format: cell-based, mouse; conditions: for EC50: Mus musculus, BMDM, 72 h, toxicity against macrophages, 3 days, concentrations from 10 to 0.16 µM
# Experimental: Primary mouse macrophages were prepared as described. Briefly, bone marrow cells were recovered from BALB/c mice and were resuspended in complete DMEM medium (PAN Biotech) supplemented with 75 ng/ml of recombinant mouse CSF-1 (ImmunoTools). Cells were distributed in hydrophobic Petri dishes (Greiner 664161, 1,5 × 10^7 in 11 ml) and incubated at 37 °C in a 7.5% CO2 air atmosphere for 6 days (with mCSF-1 supplemented medium added at day 3).
# as §1, §2, §3
# Images were transferred to the Columbus Conductor™ Database (Perkin Elmer Technologies) and analyzed using the integrated Image analysis building blocks. For L. donovani HCA, we developed a new script based on object segmentation subroutines detecting successively the macrophage nucleus, the macrophage cytoplasm, the parasites and their nuclei, with their associated features (number, size and object intensity). All methods used for segmentation are described in the Columbus Manuel. Analysis was simplified by only taking into account the number of macrophages and the number of amastigotes per macrophage, which was the common way to estimate the anti-leishmanial activity in screening campaigns. For the sake of clarity, both toxicity against host cells and activity against the parasites of tested compounds were normalized to DMSO-treated controls and expressed as percent of DMSO controls. The viability index is calculated by establishing a ratio of macrophage numbers between compound- and DMSO-treated cells, while the anti-leishmanial activity is represented by the number of amastigotes per macrophage. Compounds causing a 50% or higher reduction of macrophage density were considered toxic. […] For the L. amazonensis HCA, we applied the method we described previously. Quantitative values obtained for host cell and parasite numbers were exported to Excel and SigmaPlot for further analysis and graphical representations.
# [3] = tested on: intracellular L. amazonensis amastigotes (strain LV79); assay: High content assay on intramacrophagic L. amazonensis amastigotes in primary mouse macrophages; format: cell-based, Leishmania amazonensis; conditions: hit compounds of Figure 6
# Experimental: as §1, §2
# The high content assay used to assess the anti-leishmanial activity against intramacrophagic amastigotes of L. amazonensis has been described elsewhere. Briefly, after 3 days of co-incubation with compounds, BMDM nuclei and parasitophorous vacuoles (PVs) were stained with Hoechst 33342 (Invitrogen Molecular Probes, 12 µM) and LysoTracker Green (Life Technologies, DND-26, 1 µM), respectively. Acquisition of images was performed on live cell cultures.
# as §4
# [4] = tested on: L. donovani promastigotes (Ld1S); assay: Resazurin reduction viability assay on cultured L. donovani promastigotes; format: cell-based; conditions: Leishmania donovani, read-out: EC50 against L. donovani promastigotes
# Experimental: Figure 4 Leish-Box screening results for cultured L. donovani promastigotes. A resazurin-based viability assay was used to assess anti-leishmanial activity of Leish-Box compounds against Ld1S promastigotes. Two days after compound addition to parasite cultures at logarithmic growth phase, resazurin was added for an additional 24 hours before reading the level of resofurin fluorescence using an Infinite™ M200 plate reader (Tecan™). […] The outer and inner circles represent respectively 80% and 50% threshold activity values.
# Anti-leishmanial activity of compounds was evaluated using an adapted resazurin reduction assay[53] with cell-cycling promastigotes from logarithmic growth phase. Compounds were tested in quadruplicates at 20, 4 and 0.8 μM at 26 °C in 384-well plates. DMSO vehicle and AmB (1 μM) were used as controls. Two days later, resazurin was added (10 μL per well at 25 μg/mL) and fluorescence intensity was measured 24 h later using a Tecan Safire 2 reader (excitation 558 ± 4.5 nm; emission 585 ± 10 nm). Following background subtraction (complete parasite culture medium with resazurin in absence of parasites), data were expressed as percentages of growth compared to DMSO-treated controls (POC).
SMILES,"amastigote survival compared to DMSO control ([1]; positive control, 3 days)","toxicity toward the host cell ([2]; BMDMs recovered after three days of treatment, normalized to mock)",SI (selectivity index) [1],EC50 [1],activity on L. amazonensis intramacrophagic amastigotes [3],EC50 [2],EC50 [4]
"C[C@@H]1[C@H](O)[C@@H](C)/C=C/C=C/C=C/C=C/C=C/C=C/C=C/[C@H](O[C@@H]2O[C@H](C)[C@@H](O)[C@H](N)[C@@H]2O)C[C@@H]2O[C@](O)(C[C@@H](O)C[C@@H](O)[C@H](O)CC[C@@H](O)C[C@@H](O)CC(=O)O[C@H]1C)C[C@H](O)[C@H]2C(=O)O [AmB, amphotericin B, reference compound]",0.8%,some toxicity,,,,,
COc1ccc(NS(=O)(=O)c2cc(NC(=O)c3ccc([N+](=O)[O-])s3)ccc2OC)cc1 [TCMDC-143163],,,> 10,790 nM,active,> 10000 nM,
O=C(Nc1ccc(S(=O)(=O)N2CCCC2)cc1)c1ccc([N+](=O)[O-])s1 [TCMDC-143169],,,"> 1,5",6880 nM,active,> 10000 nM,
COc1ccc(Oc2ccc(C(C)N(C)c3ncc4c(N)nc(N)nc4n3)cc2)cc1 (stereo not shown) [TCMDC-143295],,,> 10,480 nM,active,> 10000 nM,80 nM
O=C(Nc1cccc(S(=O)(=O)Nc2ccc(Br)cc2)c1)c1ccc([N+](=O)[O-])s1 [TCMDC-143563],,,> 10,590 nM,active,6250 nM,
Cc1ccc(NC(=O)c2ccc([N+](=O)[O-])s2)cc1S(=O)(=O)N1CCOCC1 [TCMDC-143577],,,,1250 nM,active,5090 nM,
